# pIC50: −log10 of the molar value.
# Assays:
# Assay type in all cases: functional, cell-based; call rule not given here
# THP-1 = assay: Cytotoxicity against human THP1 cells by MTT assay
# A549 = assay: Cytotoxicity against human A549 cells by MTT assay
# A-375 = assay: Cytotoxicity against human A375 cells by MTT assay
# HL-60 = assay: Cytotoxicity against human HL60 cells by MTT assay; conditions: for pIC50: Homo sapiens, HL-60, read-out: IC50
Structure (SMILES),pIC50 (THP-1),pIC50 (A549),pIC50 (A-375),IC50 (HL-60; hl-60),pIC50 (HL-60)
C=C1CC[C@H]2C(C)(C)CCC[C@]2(C)[C@H]1C,4.27,4.21,4.30,Not Active,
CC1(C)CCC[C@]2(C)[C@@H](/C=C/c3ccoc3)C(C=O)=C(O)C(=O)[C@@H]12,4.63,4.42,4.67,,4.80
CCOC(=O)/C=C/c1ccc(OC)cc1 [4-METHOXY ETHYL CINNAMATE],4.47,,4.50,,4.53
O=c1cc(-c2ccccc2)oc2cc(O)cc(O)c12 [CHRYSIN],4.63,4.70,4.53,,4.47
C=C1CC[C@H]2C(C)(C)CCC[C@]2(C)[C@H]1/C=C/c1ccoc1 [CORONARIN E],4.47,4.27,4.44,,4.51
CCOC(=O)/C=C/c1ccccc1 [ETHYL CINNAMATE],4.38,4.30,4.50,,4.45
COc1cc([C@@H]2c3cc4c(cc3[C@@H](O[C@@H]3O[C@@H]5CO[C@@H](C)O[C@H]5[C@H](O)[C@H]3O)[C@H]3COC(=O)[C@H]23)OCO4)cc(OC)c1O [ETOPOSIDE],5.74,,,,5.67
CC1=CC(=O)[C@H]2C(C)(C)CCC[C@]2(C)[C@H]1/C=C/C(=O)O [SPICATANOIC ACID],4.41,4.28,4.25,,4.16
CC1(C)CCC[C@]2(C)[C@@H](/C=C/c3ccoc3)C(CO)=CC(=O)[C@@H]12 [YUNNACORONARIN D],4.23,4.29,4.38,,4.44

# — ChEMBL document CHEMBL1154174, “Phytochemical investigation of labdane diterpenes from the rhizomes of Hedychium spicatum and their cytotoxic activity” (Bioorg Med Chem Lett, 2009)
